1 substance from patent publication US20200390902A1, “Antibody-Drug Conjugates Targeted at Human Aspartyl-(Asparaginyl)-B-Hydroxylase (HAAH)” (Panacea Pharmaceuticals, Inc., priority 2017, published 2020) can be followed below.

Entries after “also recorded” stand apart in the source; their conditions may differ.

The test system of one series is MOLM-14 cells. Kind of series: MTS cell viability assay, MOLM-14. Format: cell-based, human. Particulars: MOLM-14, 24 hours. As for the experimental part:
Human H460 cells were obtained from the American Type Culture Collection (ATCC; Manassas, Va., U.S.A.). […] Human MOLM-14 cells were obtained from Dr. Ashkan Emadi at University of Maryland (Baltimore. Md., U.S.A.). The MOLM-14 cells were seeded at a density of 5000 cells/well in 96-well plates and cultured in RPMI 1640 with 20% heat-inactivated FBS. The H460 and MOLM-14 cells were treated with naked antibodies or ADCs for 24 hours, starting at the time of cell seeding. By the end of experiment, the cell viability for both cell lines was determined quantitatively using CELL TITER 96 AQUOUS ONE SOLUTION cell proliferation assay, a colorimetric method for determining the number of viable cells (MTS; Promega, Madison. Wis., U.S.A.; Catalog No. G3582).
(In general: Tetrazolium assays rely on reduction of a dye to a coloured formazan, in cell work by metabolically active cells.)

The test system of series [1] is MIA-PaCa-2 EV-derived tumors. Kind of series: Mouse model inoculated with pancreas cancer cells, MIA-PaCa-2 EV tumors. Format: in vivo. Particulars: 5 mg/kg, 29 days. As to the method:
(§1) The efficacy and specificity of SNS622-MC-DM1 was first examined in the mouse model with inoculation of pancreas cancer cells. In this model. 5 to 6-week-old female Nod Scid Gamma (NSG) mice (The Jackson Laboratory, Bar Harbor, Me., U.S.A.) were subcutaneously inoculated with 5×10^5 MIA-PaCa-2 EV cells (MIA-PaCa-2 cells transduced with an empty lentivirus vector) in 100 μl buffer solution on one shoulder, and with 5×10^5 MIA-PaCa-2 ASPH cells (MIA-PaCa-2 cells expressing high levels of ASPH) in 100 μl buffer solution on the other shoulder Two weeks post-inoculation, SNS622-MC-DM1 or IgG1-MC-DM1 was injected at 5 mg/kg through a tail vein once a week for 4 weeks. A representation of the schedule used for the ADC treatments is show n in FIG. 13.
The response to treatment with SNS622-MC-DM1 of tumors derived from MIA-PaCa-2 HAAH cells and from MIA-PaCa-2 EV cells were compared in the same mouse.

Series [2] deals with normal human lung fibroblasts (NHLF). The series can be described thus: Lactate dehydrogenase (LDH) release assay, NHLF. Particulars: 32 nM, 72 hours. Format: cell-based.
In series [3] the test system is metastatic nodules in the lungs (PDAC PDx). Kind of series: PDx model of PDAC, lung metastasis. Particulars: 1.9 mg/kg, after 6 weeks of administration. Format: in vivo, mouse. An excerpt: Pancreatic ductular adenocarcinoma (PDAC) is a highly lethal malignancy with limited treatment options. HAAH is a cell surface protein that is highly expressed in […] of PDACs. The specificity of SNS622-MC-DM1 was next examined in the patient-derived xenograft (PDx) mouse model PDAC. The patient-derived xenograft (PDx) murine model was established by using surgically resected PDAC (from Rhode Island Hospital, Providence, R.I., U.S.A.). Five to six-week-old female Nod Scid Gamma (NSG) mice were employed. […] Body weight and tumor size were measured twice a week and tumor volume was calculated using the modified ellipsoid formula (0.5×length×width^2). To determine the effect of SNS622-MC-DM1 on lung metastasis, all lung tissues were immersed in Bouin's fixative solution (Sigma-Aldrich, St. Louis, Mo., U.S.A.; catalog No, HT10132) and metastatic nodules on the surface of the lungs were counted. […]
This phenotype was maintained in the PDx model of NSG mouse. […] In this context, dose and period of administration of PAN-622 or SNS622-MC-DM1 for treatment of NSG mice was reduced to 1.9 mg/kg and the development and growth of metastatic nodules in the lungs after the treatment was assessed After 6 weeks of administration, the number of macroscopic metastatic nodules on the lung surface was determined.

Series [4] concerns MIA-PaCa-2 ASPH-derived tumors. Kind of series: Mouse model inoculated with pancreas cancer cells, MIA-PaCa-2 ASPH tumors. In kind it is in vivo. As to the method: as §1
The volume of the tumors inoculated with the MIA-PaCa-2 ASPH cells was measured starting at day 1 of treatment with ADC, and the results are shown in FIG. 15B.

For the next series, the system named is H460 cells. The series can be described thus: Lactate dehydrogenase (LDH) release assay, H460. As for the experimental part: FIG. 6 depicts the effects of linker and payload on cytotoxicity to cancer cell H460. […] The Log of the antibody concentration in nM is shown on the X axis.
HAAH is highly expressed on the surface of cancer cells, but not on normal adult human cells. The specificity of SNS622-MC-DM1 was examined using human lung carcinoma cell line H460 and LONZA NHLF, a normal human lung fibroblasts (NHLF) cell line. Both cell lines were cultured in HG-DMEM (ThermoFisher Scientific Catalog No. 11965-092) supplemented with 20 mM HEPES (4-(2-hydroxyethyl)-1-piperazineethanesulfonic acid), 4 mM L-glutamine, 1 mM sodium pyruvate, 1× non-essential amino acids, 50 μg/ml gentamicin and 10% fetal bovine serum (FBS). H460 and NHLF cells were seeded into 96-well plates at 5,000 cells per well, following a 2-day FBS deprivation, and released by culture in complete culture medium containing 10% FBS. […] By 72 hours post treatment, cell death was determined by observing cell morphology using a phase contrast microscope at 150×.
The cell death was also quantified using lactate dehydrogenase (LDH) releasing assay. For the LDH assay, a mixture of a 35 μl aliquot of culture medium and 17.5 μl of substrate, enzyme, and dye solutions (Sigma, St. Louis, Mo., U.S.A.) was incubated at room temperature for 30 minutes, and absorbance was measured at 490 nm using a plate reader (ELx805; BioTek, Winooski, Vt., U.S.A.).

With “SNS622-MC-DM1: SNS622 anti-HAAH monoclonal antibody conjugated to mertansine (DM1) by the non-cleavable linker maleimidocaproyl (MC)”, in the series with MOLM-14 cells, the “Effect on MOLM-14 cell viability / growth (MTS)” value was “inhibit in vitro cell growth of both H460 and MOLM-14; also recorded: greatest suppression in the growth of MOLM-14 cells”. Further, the “Effect on MIA-PaCa-2 EV tumor growth” value in series [1] was “grew fast throughout the duration of the experiment; also recorded: much lower effect on tumors derived from MIA-PaCa-2 EV cells”. The “Increase in LDH release” value in series [2] is recorded as “did not result in a detectable increase in LDH release”. In addition, the “Mean number of nodules per animal” value in series [3] was determined as 3.25. In addition, in series [3], the “Total number of metastatic nodules in group” value is on record as “approximately 35”. In series [4] (5 mg/kg, up to 29 days), the “Effect on MIA-PaCa-2 ASPH tumor volume / growth” value is recorded as “robustly suppressed; also recorded: strongly suppressed growth of MIA-PaCa-2 ASPH-derived tumors”. Also, the “Reduction in tumor volume in comparison with IgG-MC-DM1 group” value in series [4] (day 15, 5 mg/kg tail vein once a week) is recorded as “approximately 55%”; in series [4] (day 22, 5 mg/kg tail vein once a week) it was “approximately 53%”; in series [4] (day 29, 5 mg/kg tail vein once a week), “approximately 53%”. Moreover, the “Volume of MIA-PaCa-2 ASPH-derived tumors relative to MIA-PaCa-2 EV-derived tumors” value in series [4] (treatment day 29, same mouse, 5 mg/kg) is on record as “approximately 1/7”. In addition, the “Increase in release of LDH compared to untreated cells” value with H460 cells (H460, 32 nM, 72 hours) stood at 39 ×. For the same substance, the CC50 in the series on H460 cells (read-out: LC50 of LDH, H460, 72 hours, reaction DAR 10:1) worked out at 36 nM.
